Assay results: patent US8865734B2 (priority 2010, dated 2014)
≈ marks a conversion by molar mass, not a printed value.

Legend:
[1] = system: M. tuberculosis inside the host macrophage; test: QIM: Quantification of Intracellular Mycobacteria (intracellular growth assay, phenotypic cell-based); conditions: Mycobacterium tuberculosis; MIC, 80% bacterial growth inhibition; intracellular growth; read-out: QIM
Method in brief: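 Dose-response testing of intracellular mycobacterial replication in infected macrophages, a cell-based screening format; MIC is defined as the lowest concentration achieving 80% inhibition of bacterial growth.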

[2] = system: in vitro grown Mycobacteria (M. tuberculosis); test: QUM: Quantification of in vitro grown Mycobacteria (in vitro growth fluorescence assay); format: cell-based; conditions: Mycobacterium tuberculosis; MIC, 80% bacterial growth inhibition; in vitro growth; read-out: QUM
Method in brief: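 Mycobacterium tuberculosis grown in vitro was quantified by fluorescence across compound dose responses. MIC is defined as the minimum concentration producing 80% growth inhibition.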

SMILES | MIC [1] | MIC [2] | melting point
CCc1nc2cc(C)ccn2c1C(=O)NCc1ccc(N2CCOCC2)cc1 [Compound 68, 2-Ethyl-7-methyl-N-(4-morpholinobenzyl)imidazo[1,2-a]pyridine-3-carboxamide] | < 1 µM | 1 to 20 µM (≈ 0.378 to 7.57 µg/mL) | 190 °C
CCc1nc2cc(C)ccn2c1C(=O)NCc1ccc2ccccc2c1 [Compound 69, 2-Ethyl-7-methyl-N-(naphthalen-2-ylmethyl)imidazo[1,2-a]pyridine-3-carboxamide] | < 1 µM | 1 to 20 µM (≈ 0.343 to 6.87 µg/mL) | 192 °C
CCc1nc2cc(Cl)ccn2c1C(=O)NCc1ccc(N2CCOCC2)cc1 [Compound 89, 7-Chloro-2-ethyl-N-(4-morpholinobenzyl)imidazo[1,2-a]pyridine-3-carboxamide] | 1 to 20 µM (≈ 0.399 to 7.98 µg/mL) | < 1 µM | 195 °C
CCc1nc2ccc(Cl)cn2c1C(=O)NCc1ccc(C#N)cc1 [Compound 146, 6-Chloro-N-(4-cyanobenzyl)-2-ethylimidazo[1,2-a]pyridine-3-carboxamide] | 1 to 20 µM (≈ 0.339 to 6.78 µg/mL) | > 20 µM | 223 to 224 °C
CCc1nc2ccc(Cl)cn2c1C(=O)NCc1ccc(C(F)(F)F)cc1 [Compound 147, 6-Chloro-2-ethyl-N-(4-(trifluoromethyl)benzyl)imidazo[1,2-a]pyridine-3-carboxamide] | < 1 µM | < 1 µM | 179 to 180 °C
C=C1CCN(c2ccc(CNC(=O)c3c(CC)nc4cc(Cl)ccn34)cc2)CC1 [Compound 271, 7-Chloro-2-ethyl-N-(4-(4-methylenepiperidin-1-yl)benzyl)imidazo[1,2-a]pyridine-3-carboxamide] | – | < 1 µM | 168.3 °C
CCc1nc2cc(Cl)ccn2c1C(=O)NCc1ccc(N2CCC(C)(C)CC2)cc1 [Compound 274] | – | < 1 µM | 121.3 °C
CCc1nc2ccc(Cl)cn2c1C(=O)NCc1ccc(N2CCC(C(F)(F)F)CC2)cc1 [Compound 275, 6-Chloro-2-ethyl-N-(4-(4-(trifluoromethyl)piperidin-1-yl)benzyl)imidazo[1,2-a]pyridine-3-carboxamide] | – | 1 to 20 µM (≈ 0.465 to 9.3 µg/mL) | 197.9 °C
CCc1nc2cc(Cl)ccn2c1C(=O)NCc1ccc(N2CCC(C(F)(F)F)CC2)cc1 [Compound 276, 7-Chloro-2-ethyl-N-(4-(4-(trifluoromethyl)piperidin-1-yl)benzyl)imidazo[1,2-a]pyridine-3-carboxamide] | – | > 20 µM | 209.4 °C
CCc1nc2ccc(Cl)cn2c1C(=O)NCc1ccc(N2CCC(F)(F)CC2)cc1 [Compound 277, 6-chloro-N-(4-(4,4-difluoropiperidin-1-yl)benzyl)-2-ethylimidazo[1,2-a]pyridine-3-carboxamide] | – | 1 to 20 µM (≈ 0.433 to 8.66 µg/mL) | 194.2 °C
CCc1nc2cc(Cl)ccn2c1C(=O)NCc1ccc(N2CCC(F)(F)CC2)cc1 [Compound 278, 7-Chloro-N-(4-(4,4-difluoropiperidin-1-yl)benzyl)-2-ethylimidazo[1,2-a]pyridine-3-carboxamide] | – | 1 to 20 µM (≈ 0.433 to 8.66 µg/mL) | 166.3 °C
CCc1nc2ccc(Cl)cn2c1C(=O)NCc1ccc(N2CCC(CO)CC2)cc1 [Compound 279, 6-Chloro-2-ethyl-N-(4-(4-(hydroxymethyl)piperidin-1-yl)benzyl)imidazo[1,2-a]pyridine-3-carboxamide] | – | > 20 µM | 161.1 °C
CCc1nc2cc(Cl)ccn2c1C(=O)NCc1ccc(N2CCC(c3ccccc3)CC2)cc1 [Compound 283, 7-Chloro-2-ethyl-N-(4-(4-phenylpiperidin-1-yl)benzyl)imidazo[1,2-a]pyridine-3-carboxamide] | – | < 1 µM | 164.5 °C
CCc1nc2ccc(Cl)cn2c1C(=O)NCc1ccc(N2CCC(c3ccccc3)CC2)cc1 [Compound 284, 6-Chloro-2-ethyl-N-(4-(4-phenylpiperidin-1-yl)benzyl)imidazo[1,2-a]pyridine-3-carboxamide] | – | < 1 µM | 138.2 °C
CCc1nc2ccccn2c1C(=O)NCc1ccc(N2CCC(c3ccc(OC(F)(F)F)cc3)CC2)cc1 [Compound 288, 2-Ethyl-N-(4-(4-(4-(trifluoromethoxy)phenyl)piperidin-1-yl)benzyl)imidazo[1,2-a]pyridine-3-carboxamide] | – | < 1 µM | 146 °C
CCc1nc2cc(Cl)ccn2c1C(=O)NCc1ccc(N2CCC(Cc3ccccc3)CC2)cc1 [Compound 294, N-(4-(4-Benzylpiperidin-1-yl)benzyl)-7-chloro-2-ethylimidazo[1,2-a]pyridine-3-carboxamide] | – | 1 to 20 µM (≈ 0.487 to 9.74 µg/mL) | 63.8 °C

SMILES | MIC [1] | MIC [2] | melting point
CCc1nc2ccc(Cl)cn2c1C(=O)NCc1ccc(N2CCC(COc3ccc(OC(F)(F)F)cc3)CC2)cc1 [Compound 298, 6-chloro-2-ethyl-N-(4-(4-((4-(trifluoromethoxy)phenoxy)methyl)piperidin-1-yl)benzyl)imidazo[1,2-a]pyridine-3-carboxamide] | – | < 1 µM | 183.6 °C
CCc1nc2cc(Cl)ccn2c1C(=O)NCc1ccc(N2CCC(COc3ccc(OC(F)(F)F)cc3)CC2)cc1 [Compound 299, 7-Chloro-2-ethyl-N-(4-(4-((4-(trifluoromethoxy)phenoxy)methyl)piperidin-1-yl)benzyl)imidazo[1,2-a]pyridine-3-carboxamide] | – | < 1 µM | 189.5 °C
CCc1nc2c(OC(F)F)cccn2c1C(=O)NCc1ccc(N2CCN(c3ccc(F)cc3)CC2)cc1 [Compound 304, 8-(Difluoromethoxy)-2-ethyl-N-(4-(4-(4-fluorophenyl)piperazin-1-yl)benzyl)imidazo[1,2-a]pyridine-3-carboxamide] | – | < 1 µM | 186.3 °C
CCc1nc2ccc(C)cn2c1C(=O)NCc1ccc(N2CCN(c3ccc(F)cc3)CC2)cc1 [Compound 308, 2-Ethyl-N-(4-(4-(4-fluorophenyl)piperazin-1-yl)benzyl)-6-methylimidazo[1,2-a]pyridine-3-carboxamide] | – | < 1 µM | 187.6 °C
CCc1nc2c(OC(F)F)cccn2c1C(=O)NCc1ccc(N2CCOCC2)cc1 [Compound 319, 8-(Difluoromethoxy)-2-ethyl-N-(4-morpholinobenzyl)imidazo[1,2-a]pyridine-3-carboxamide] | – | 1 to 20 µM (≈ 0.43 to 8.61 µg/mL) | 163 °C
CCc1nc2ccc(C(F)(F)F)cn2c1C(=O)NCc1ccc(N2CCOCC2)cc1 [Compound 321, 2-Ethyl-N-(4-morpholinobenzyl)-6-(trifluoromethyl)imidazo[1,2-a]pyridine-3-carboxamide] | – | < 1 µM | 207.6 °C
CCc1nc2cc(C(F)(F)F)ccn2c1C(=O)NCc1ccc(N2CCOCC2)cc1 [Compound 322, 2-Ethyl-N-(4-morpholinobenzyl)-7-(trifluoromethyl)imidazo[1,2-a]pyridine-3-carboxamide] | – | 1 to 20 µM (≈ 0.432 to 8.65 µg/mL) | 174.1 °C
CCc1nc2c(C(F)(F)F)cccn2c1C(=O)NCc1ccc(N2CCOCC2)cc1 [Compound 323, 2-Ethyl-N-(4-morpholinobenzyl)-8-(trifluoromethyl)imidazo[1,2-a]pyridine-3-carboxamide] | – | 1 to 20 µM (≈ 0.432 to 8.65 µg/mL) | 200.6 °C
CCc1nc2cc(Cl)ccn2c1C(=O)NCc1ccc(N2CCC(c3ccc(Cl)cc3)CC2)cc1 [Compound 338, 7-Chloro-N-(4-(4-(4-chlorophenyl)piperidin-1-yl)benzyl)-2-ethylimidazo[1,2-a]pyridine-3-carboxamide] | – | < 1 µM | 177 °C
CCc1nc2ccc(Cl)cn2c1C(=O)NCc1ccc2oc(C3CCCCC3)nc2c1 [Compound 339, 6-Chloro-N-((2-cyclohexylbenzo[d]oxazol-5-yl)methyl)-2-ethylimidazo[1,2-a]pyridine-3-carboxamide] | – | < 1 µM | 169.7 °C
CCc1nc2cc(Cl)ccn2c1C(=O)NCc1ccc2oc(C3CCCCC3)nc2c1 [Compound 340, 7-Chloro-N-((2-cyclohexylbenzo[d]oxazol-5-yl)methyl)-2-ethylimidazo[1,2-a]pyridine-3-carboxamide] | – | < 1 µM | 163 °C
CCc1nc2ccc(Cl)cn2c1C(=O)NCc1ccc(N2CCC(O)(c3ccc(F)cc3)CC2)cc1 [Compound 341, 6-Chloro-2-ethyl-N-(4-(4-(4-fluorophenyl)-4-hydroxypiperidin-1-yl)benzyl)imidazo[1,2-a]pyridine-3-carboxamide] | – | < 1 µM | 173.5 °C
CCc1nc2cc(Cl)ccn2c1C(=O)NCc1ccc(N2CCC(O)(c3ccc(F)cc3)CC2)cc1 [Compound 342, 7-Chloro-2-ethyl-N-(4-(4-(4-fluorophenyl)-4-hydroxypiperidin-1-yl)benzyl)imidazo[1,2-a]pyridine-3-carboxamide] | – | < 1 µM | 199 °C
CCc1nc2ccc(Cl)cn2c1C(=O)NCc1ccc(N2CCC(C(N)=O)CC2)cc1 [Compound 343, N-(4-(4-Carbamoylpiperidin-1-yl)benzyl)-6-chloro-2-ethylimidazo[1,2-a]pyridine-3-carboxamide] | – | < 1 µM | 257.5 °C
CCc1nc2cc(Cl)ccn2c1C(=O)NCc1ccc(N2CCC(C(N)=O)CC2)cc1 [Compound 344, N-(4-(4-Carbamoylpiperidin-1-yl)benzyl)-7-chloro-2-ethylimidazo[1,2-a]pyridine-3-carboxamide] | – | 1 to 20 µM (≈ 0.44 to 8.8 µg/mL) | 244 °C
CCc1nc2ccc(Cl)cn2c1C(=O)NCc1ccc(N2CCOCC2)c(Cl)c1 [Compound 349, 6-Chloro-N-(3-chloro-4-morpholinobenzyl)-2-ethylimidazo[1,2-a]pyridine-3-carboxamide] | – | < 1 µM | 175.5 °C
